# Earlier results in US20190167706A1, “Solid Pharmaceutical Composition Comprising Amorphous Sofosbuvir” (Sandoz AG, priority 2016, published 2019).
compound,measurement,setting,value
"CC(C)OC(=O)[C@H](C)N[P@](=O)(OC[C@H]1O[C@@H](n2ccc(=O)[nH]c2=O)[C@](C)(F)[C@@H]1O)Oc1ccccc1 [Amorphous sofosbuvir, (S)-isopropyl 2-(((S)-(((2R,3R,4R,5R)-5-(2,4-dioxo-3,4-dihydropyrimidin-1(2H)-yl)-4-fluoro-3-hydroxy-4-methyltetrahydrofuran-2-yl)methoxy)(phenoxy)phosphoryl)amino)propanoate]",relative humidity at which the substance deliquesces,"amorphous form, compared to crystalline forms",above 50%
"CC(C)OC(=O)[C@H](C)N[P@](=O)(OC[C@H]1O[C@@H](n2ccc(=O)[nH]c2=O)[C@](C)(F)[C@@H]1O)Oc1ccccc1 [sofosbuvir, (S)-isopropyl 2-(((S)-(((2R,3R,4R,5R)-5-(2,4-dioxo-3,4-dihydropyrimidin-1(2H)-yl)-4-fluoro-3-hydroxy-4-methyltetrahydrofuran-2-yl)methoxy)(phenoxy)phosphoryl)amino)propanoate]",moisture stability: deliquescence under stress conditions,40° C. and a relative humidity (RH) of 75%,deliquesces after a few hours
